# Test results from PubChem BioAssay AID1259321 (Sanford-Burnham Center for Chemical Genomics, 2017).
# Active and inactive are the calls of the source.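 The calls were made as follows: active = half-maximal concentration for changing protein binding to DNA, from the fitted dose curve, below 10 micromolar; inactive = the rest.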
# Biological target: Nuclear receptor subfamily 1 group D member 1 (Homo sapiens) (UniProt P20393)
# Test: modulators of Rev-erb alpha DNA binding, dose response, biochemical, FITC-DNA, fluorescence polarization (AID 1259321)
# Nuclear receptor subfamily 1 group D member 1 (Homo sapiens), sequence (P20393 whole entry, looked up): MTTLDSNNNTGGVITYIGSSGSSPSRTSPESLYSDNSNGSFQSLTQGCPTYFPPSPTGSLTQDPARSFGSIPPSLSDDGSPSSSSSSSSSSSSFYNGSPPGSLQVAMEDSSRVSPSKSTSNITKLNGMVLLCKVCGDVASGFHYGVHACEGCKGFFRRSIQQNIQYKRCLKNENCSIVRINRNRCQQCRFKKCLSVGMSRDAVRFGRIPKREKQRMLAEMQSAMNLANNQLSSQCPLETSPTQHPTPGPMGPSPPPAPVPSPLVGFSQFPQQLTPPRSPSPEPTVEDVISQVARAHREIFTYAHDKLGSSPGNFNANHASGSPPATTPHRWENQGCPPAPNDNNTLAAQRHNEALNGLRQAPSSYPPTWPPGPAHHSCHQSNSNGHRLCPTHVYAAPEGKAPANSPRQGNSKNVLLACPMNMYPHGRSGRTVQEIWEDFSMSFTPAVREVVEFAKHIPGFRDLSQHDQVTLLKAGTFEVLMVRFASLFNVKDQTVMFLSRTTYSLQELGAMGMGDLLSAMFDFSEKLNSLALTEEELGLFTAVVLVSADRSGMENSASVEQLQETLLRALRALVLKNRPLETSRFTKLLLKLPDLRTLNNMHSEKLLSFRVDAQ
row,SMILES,IC50
1,COC(=O)c1cc2cc(Cl)ccc2nc1SC,2.53 µM
2,Cc1ccc(-n2c(SCC(=O)NCc3ccco3)nc3sc4c(c3c2=O)CC(C)(C)SC4)cc1,1.93 µM
3,COc1ccc(Cn2ccc3ccc(-c4ccc5ccn(C(=O)c6cccc(OC)c6)c5c4)cc32)cc1,> 40 µM (inactive)
4,CC1(C)Cc2nc3sc4c(SCC(=O)NC(c5ccccc5)c5ccccc5)ncnc4c3cc2CO1,> 40 µM (inactive)
5,O=C(Nc1cccc(C(F)(F)F)c1)c1cc(Br)cc2c1OCC2,> 40 µM (inactive)
6,Cc1ccc(S(=O)(=O)c2nnn3c2nc(N2CCN(c4ccccn4)CC2)c2ccccc23)cc1C,3.36 µM
7,CCOC(=O)c1sc(NC(=S)NC(=O)c2cccc(OC)c2)nc1C,8.54 µM
8,N#Cc1cccc(Cn2ccc3ccc(-c4ccc5ccn(Cc6cccc(C#N)c6)c5c4)cc32)c1,0.544 µM
9,O=S(=O)(N1CCCCC1)N1CCN(CC(O)COc2ccc3cc(Br)ccc3c2)CC1 (centres undefined),> 40 µM (inactive)
10,O=C(CCn1c(SCC(=O)c2ccccc2)nc2ccccc2c1=O)NCc1ccc(F)cc1,> 40 µM (inactive)
11,COc1cc(N2N=C(c3ccccc3)CC2c2ccccc2)c(C=O)cc1C=O (centres undefined),4.6 µM
12,CCOc1cccc2sc(NC(=O)c3ccc(Br)s3)nc12,> 40 µM (inactive)
13,O=C(NCc1ccccc1)C(c1cc2ccccc2o1)n1c(=O)c(-c2ccccc2)nc2ccccc21 (centres undefined),> 40 µM (inactive)
14,Nc1ccc2nc3c(=O)n(CCc4ccccc4)c(=O)[nH]c3nc2c1,2.89 µM
15,COc1ccc(C(=O)/C(C#N)=N/Nc2ccc([N+](=O)[O-])cc2)cc1,> 40 µM (inactive)
16,C=CCn1c(=NC(=O)c2ccco2)sc2cc(C(=O)OC)ccc21,inactive
17,COC1C(CO)OC(n2c3c(Cl)cccc3c3c4c(c5c6cccc(Cl)c6[nH]c5c32)C(=O)NC4=O)C(O)C1O (centres undefined),inactive
18,CCCn1c(N)c(C(=O)CSc2nc(C)nc3sc(C)c(C)c23)c(=O)[nH]c1=O,> 40 µM (inactive)
19,N#Cc1c(-c2ccc(F)cc2)cc(C2CC2)nc1SCC(=O)c1cccs1,> 40 µM (inactive)
20,Cn1c(=O)c2c(nc(SCC(=O)c3cccs3)n2Cc2ccc(F)cc2)n(C)c1=O,> 40 µM (inactive)
21,O=C(CSc1ncnc2c1sc1ccccc12)Nc1ccc(Br)cc1,2.97 µM
22,COc1ccc(Cl)cc1NC(=O)c1[nH]c(C)c(C(C)=O)c1C,6.1 µM
23,COc1ccc2cc(C#N)c(Nc3cccc(F)c3)nc2c1,7.69 µM
24,CCCCCC[n+]1ccccc1/C=C/c1ccc(N(C)C)cc1,7.24 µM
25,COc1ccc(-c2c(C#N)c(N)nc(Sc3ccc(Cl)cc3)c2C#N)cc1,3.66 µM
26,COC(=O)c1ccc(CSc2ncnc3c2oc2ccccc23)o1,2.73 µM

row,SMILES,IC50
1,CCOC(=O)c1c(NC(=S)Nc2ccc(OC)cc2)sc2c1CCC2,5.93 µM
2,O=[N+]([O-])c1ccc(-c2nc(-c3cccs3)c(-c3cccs3)[nH]2)cc1,inactive
3,N#CC(C#N)=C1C=C2C=C(N3CCCCCC3)CCC2CC1 (centres undefined),4.8 µM
4,NS(=O)(=O)c1ccc(CNC(=O)c2cc(-c3cccnc3)nc3ccc(Br)cc23)cc1,0.496 µM
5,Fc1cccc(CSc2ncnc3c2oc2ccccc23)c1,2.38 µM
6,Cc1nc(NC(=O)c2cncc(Br)c2)ccc1Br,inactive
7,CCOC(=O)/C(C#N)=C/c1cc2ccccc2nc1N1CCCCC1,> 40 µM (inactive)
8,Fc1ccc(CSc2ncnc3c2oc2ccccc23)cc1,6.81 µM
9,Cc1ccc2nc(/C(C#N)=C/c3ccc(-c4ccccc4C(=O)O)o3)[nH]c2c1,inactive
10,COc1ccccc1NC(=O)c1sc2nc(Cc3ccccc3)cc(C(F)(F)F)c2c1N,inactive
11,CCc1cc2cc(C)cc(C)c2nc1SCC(=O)N1CCCC1,> 40 µM (inactive)
12,CCc1ccc2n(-c3ccc(OC)cc3)c([S-])c(C(=O)Nc3cc(C)cc(C)c3)[n+]2c1,2.71 µM
13,CN1C(=O)C(=Cc2ccc(N3CCOCC3)o2)C(=O)N(C)C1=O,1.36 µM
14,COc1ccc(-c2nc(-c3cccs3)c(-c3cccs3)[nH]2)cc1OC,5.77 µM
15,CCN(CC)c1ccc(/C=C(\C#N)C(=O)c2ccc(Br)cc2)cc1,inactive
16,CCc1cc2cc(C)ccc2nc1SCC(=O)NC1CCCC1,3.66 µM
17,Cc1ccc2nc(N3CCN(S(=O)(=O)c4ccc(C)c(Cl)c4)CC3)c(C#N)cc2c1,3.31 µM
18,COc1ccc(S(=O)(=O)N2CCCCCC2)cc1C(=O)Nc1ccc(C)cn1,> 40 µM (inactive)
19,O=C(CSc1ncnc2c1oc1ccccc12)NCc1ccc(F)cc1,1.26 µM
20,CCOC(=O)c1cccc2c(=O)c(C(=O)c3ccc(Cl)cc3)c(C(=O)OC)[nH]c12,> 40 µM (inactive)
21,Cc1ccc(NC(=O)CSc2nc3ncc(Br)cc3[nH]2)cc1C,> 40 µM (inactive)
22,CCN(CC)C(=O)CSc1nc(C)cc(-c2cccs2)c1C#N,5.91 µM
23,Cn1c(=O)c(NCCc2ccccc2)c2c3c(cccc31)C(=O)c1ccccc1-2,inactive
24,CN1C(=O)C(=Cc2ccc(N3CCCCCC3)o2)C(=O)N(C)C1=S,inactive
25,COc1ccc(-c2cc(C(=O)Nc3cccnc3Cl)no2)cc1OC,1.92 µM
26,COc1ccc(-n2nc(C(=O)NCC(=O)Nc3ccccn3)c3ccccc3c2=O)cc1Cl,1.28 µM

row,SMILES,IC50
1,O=C(NCc1cc(C(F)(F)F)ccc1Cl)c1cccc2c1C(=O)c1ccc(Cl)cc1S2(=O)=O,4.22 µM
2,O=c1c2ccccc2sc2ccc(Cl)cc12,3.38 µM
3,CCOc1ccc(C(=O)Nc2nc(C)c(C(=O)OC)s2)cc1,2.2 µM
4,CN1C(=O)C(=Cc2ccc(N3CCCCC3)o2)C(=O)N(C)C1=S,inactive
5,O=C(Nc1ccc(O)c(-c2nc3ccccc3s2)c1)c1cccs1,3.03 µM
6,O=C(CSc1nc2ccccc2c(=O)n1-c1ccc(F)cc1)Nc1ccc(Cl)c(S(=O)(=O)N2CCOCC2)c1,2.38 µM
7,N#C/C(=C(/O)C(Cl)c1ccccc1)c1nc2ccccc2s1 (centres undefined),5.7 µM
8,O=C(Cn1cc(C(F)(F)F)cc(Cl)c1=O)NCc1ccc(Cl)cc1Cl,inactive
9,Cc1ccc(C)c2nc(SCC(=O)N3CCCc4ccccc43)c(C#N)cc12,6.12 µM
10,CCOc1ccc(NC(=O)CSc2ncnc3c2sc2ccccc23)cc1,6.32 µM
11,CCN(CC)S(=O)(=O)c1ccc(N2CCCCC2)c(NC(=O)C2CSC3(C)CCC(=O)N23)c1 (centres undefined),inactive
12,COc1ccccc1N=Nc1c(O)[nH]c(=S)[nH]c1=O,> 40 µM (inactive)
13,Cc1nc(SCC(=O)Nc2ccccc2)c2oc3ccccc3c2n1,inactive
14,CCC(c1ccc(O)cc1)C(CC)c1ccc(O)cc1 (centres undefined),inactive
15,Cc1cc(NC(=O)CSc2nc3c(C)ccc(C)c3cc2C#N)no1,3.19 µM
16,Cc1ccc2cc(-c3noc(C4CCCCC4)n3)c(=O)[nH]c2c1,inactive
17,CCc1cc2ccc(OC)cc2nc1SCC(=O)Nc1cc(C)on1,> 40 µM (inactive)
18,COc1cc(OC)cc(-n2c3nc4ccccc4nc3c3c(=O)n(CC4CCCO4)cnc32)c1 (centres undefined),4.12 µM
19,COc1ccc(-c2ccc3sc4ccccc4c(=O)c3c2)cn1,3.24 µM
20,CCCCCn1c(=O)c(C(=O)Nc2ccccc2Cl)c(O)c2ccccc21,> 40 µM (inactive)
21,COc1cc(OC)cc(C(=O)OCc2cc3ccccc3[nH]c2=O)c1,inactive
22,CC(=O)c1ccc(NC(=O)COC(=O)c2ccccc2Sc2ccccc2C#N)cc1,> 40 µM (inactive)
23,O=C(CCCC(=O)OCC(=O)c1cccs1)Nc1ccc(Oc2ccccc2)cc1,inactive
24,Cc1nn(C)c(C)c1NC(=O)CSc1nc(-c2ccccc2F)nc2c1cnn2-c1ccccc1,3.21 µM
25,N#Cc1cnc2cc(-c3ccccc3)nn2c1N,3.52 µM
26,CCCCOC(=O)c1cc(C)nc2ccc(Br)cc12,inactive

row,SMILES,IC50
1,Cc1coc(NC(=O)CSc2nc(-c3ccc(Cl)cc3)cc(C(F)(F)F)c2C#N)n1,inactive
2,Cc1ccc(-n2c(SCC(=O)Nc3cccc(C)c3)nc3c(oc4ccccc43)c2=O)cc1,2.18 µM
3,COc1ccc2c(c1)c(/C=C/c1cc[n+](C)cc1)cn2C,inactive
4,COc1ccc(C(=O)Nc2nc(C)c(C(C)=O)s2)cc1S(=O)(=O)N1CCOCC1,> 40 µM (inactive)
5,CC(=O)Nc1sc(C)c(C)c1C(=O)OCC(=O)N(Cc1ccccc1)C(C)C,inactive
6,Cc1cc(NC(=O)CSc2nc3c(C)cccc3cc2C#N)no1,> 40 µM (inactive)
7,Cc1ccc(S(=O)(=O)c2nnn3c2nc(N2CCN(c4ccccn4)CC2)c2ccccc23)cc1,0.876 µM
8,C=CCc1cccc(C2Nc3ccccc3C(=O)N2O)c1O (centres undefined),7.11 µM
9,COc1ccccc1CC1(C)C(=O)Nc2ccc(OC(F)(F)F)cc21 (centres undefined),> 40 µM (inactive)
10,CCNC(=O)Nc1ccc2c(c1)C(=O)N(C)[C@H]1CC[C@H](CC(=O)N[C@H](C)c3ccccc3)O[C@@H]1CO2,inactive
11,COc1ccc(NC(=O)/C(C#N)=C\c2ccc(N3CCOCC3)o2)cc1,> 40 µM (inactive)
12,CCc1ccc(NC(=O)CSc2nnc(-c3n[nH]c4ccccc34)n2-c2ccccc2)cc1,2.64 µM
13,CCOC(=O)c1sc(NC(=O)c2ccc(S(=O)(=O)N(C)C)cc2)nc1C,inactive
14,Cc1cc(N2CCCC2)ccc1/C=C1\NC(=S)N(C)C1=O,inactive
15,O=C(COC(=O)c1sc2ccccc2c1Cl)Nc1ncc(Cl)cc1Cl,> 40 µM (inactive)
16,Cn1c(SCC(=O)c2ccc3c(c2)Cc2ccccc2-3)nnc1-c1ccccc1,2.24 µM
17,Cc1ccc2c(c1)c(/C=C/c1cc[n+](C)cc1)c(C)n2C,> 40 µM (inactive)
18,Cn1c(SCC(=O)Nc2cccc(F)c2)nnc1-c1cc2ccccc2o1,inactive
19,O=C(COc1nc2ccccc2nc1N1CCOCC1)N1CCc2ccccc21,> 40 µM (inactive)
20,Cc1c(Cl)cccc1NC(=O)Cn1cc(C(F)(F)F)cc(Cl)c1=O,> 40 µM (inactive)
21,CCC(=O)N=c1sc2c(OC)ccc(OC)c2n1C,2.98 µM
22,O=C(CCc1c[nH]c2ccccc12)NCCc1ccc(Cl)cc1,> 40 µM (inactive)
23,COc1cc(C(=O)NCc2ccc(-c3nc4ccccc4s3)cc2)cc(OC)c1OC,> 40 µM (inactive)
24,CC(=O)c1ccc(Nc2ncnc3ccc(Br)cc23)cc1,inactive
25,Cc1cccc(-c2nnn3c2nc(NCCc2ccc(S(N)(=O)=O)cc2)c2ccccc23)c1,> 40 µM (inactive)
26,COc1cc(-c2nn3c(COc4ccccc4)nnc3s2)cc(OC)c1OC,2.99 µM
